{
  "source": "patent US20050048539A1",
  "about": "“Methods to monitor molecule conformation and molecule/molecule proximity” (The General Hospital Corporation, priority 2003, published 2005)",
  "key": {"[1]": {"tested_on": "APP and PS1 (PS1/γ-secretase complex)", "assay": "FLIM assay for PS1 loop-APP C-terminus proximity in CHO cells treated with γ-secretase inhibitors", "assay_type": "cell-based, Chinese hamster", "settings": "WT PS1 CHO cells; donor PS1 loop-FITC, acceptor APP770-CY3; 4 h with DAPT 500 nM or WPE-III-31C 1 μM; non-FRET control 2600 ± 110, untreated 2290 ± 216", "description": "(§1) Chinese hamster ovary (CHO) cells stably transfected with APP770 and either wild type PS1 (wt PS1) or Aspartate mutant PS1 (D257A PS1) were grown in OPTI-MEM with 5% fetal bovine serum and appropriate antibiotics (Puromycin or Zeocin, respectively, (Berezovska et al., 2000)).\nCells were fixed and immunostained 24 hrs posttransfection as described previously (Jack, C. et al., Brain Res Mol Brain Res 87: 166-174, 2001). We used a polyclonal C8 antibody (Selkoe, D. et al., Proc Natl Acad Sci USA 85: 7341-7345, 1988) to detect the C-terminus of APP. A monoclonal antibody to the loop region of PS1 (Chemicon, Temecula, Calif.) was used to identify the γ-secretase complex. PS1 N-terminal X81 antibody was a gift from D. Selkoe (Brigham and Women's Hospital, Boston, Mass.); PS1 C-terminal antibody was purchased from R&D Systems, Inc., Minneapolis, Minn.). For FRET/FLIM studies we chose Cy3-labeled goat anti-rabbit as the acceptor fluorophore, and FITC-labeled goat anti-mouse as the donor fluorophore.\nFluorescence Lifetime Imaging Microscopy (FLIM) relies on the observation that fluorescence lifetimes (the time of fluorophore emission after brief excitation, measured in picoseconds) are shorter in the presence of a FRET acceptor. […] We used a high-speed Hamamatsu detector and hardware/software from Becker and Hickl (Berlin, Germany) to measure fluorescence lifetimes on a pixel-by-pixel basis. […]\nThe following controls were used to establish and validate the FLIM assay: (1) As a negative control, FITC lifetime was measured in the absence of the acceptor. […] (2) As a positive control, FITC lifetime was measured in the presence of an acceptor. […] By contrast, the FITC fluorescence lifetime (FLIM image) within the area where the acceptor was photobleached reverts to a longer lifetime (color-coded as blue), identical to the lifetime of FITC in the absence of an acceptor (as in the negative control, FIG. 7A). […]\nIf there was no interaction, lifetimes on the order of ˜2600 psec were observed. If FRET was detected, a population with a statistically shorter lifetime (<˜2400 psec) was observed."}, "APP and PS1": {"tested_on": "APP and PS1", "assay": "Photobleach dequenching FRET assay between APP and PS1", "assay_type": "cell-based, Chinese hamster", "description": "Fluorescence Resonance Energy Transfer (FRET) measurements were made using a BioRad1024 confocal microscope mounted on a Nikon Eclipse TE300 inverted Microscope. A krypton-argon laser was used to excite FITC and Cy3 (excitation wavelengths at 488 and 568 nm, respectively). FRET was measured using a method developed for laser scanning confocal microscopy (McLean, P. J. et al., J Biol Chem 275: 8812-8816, 2000; Kinoshita, A. et al., J Neurosci 21: 8354-8361, 2001). The amount of FRET was calculated as a percent increase in donor (FITC) fluorescence intensity after photobleaching the acceptor (Cy3) in a small part of the cell (˜8×8 μm). This ratio was then normalized to the percent change in FITC fluorescence intensity in a non-bleached area of the cell. The percent change in fluorescence intensity was compared to the null hypothesis value of 1.0 by one-group t-tests.\nFRET arises when donor and acceptor molecules are <10 nm apart. […] A small area within the cell was photobleached at 568 nm (acceptor only), and FITC fluorescence intensity (at 488 nm) was measured before and after photobleaching.\nTreatment with γ-secretase inhibitors (or Asp mutations in PS1) prevents processing of substrates at γ-secretase site. […] This was also true for the D257A PS1 mutation; we observed 25.9±11% (n=8, P<0.05) increase in FITC-fluorescence intensity, compared to a non-FRET control."}, "Aβ secretion": {"tested_on": "Aβ secretion", "assay": "Aβ production after DAPT treatment (sister cultures)", "assay_type": "cell-based, Chinese hamster", "description": "as §1\nWe investigated whether APP and PS1 interactions would still be observed if γ-secretase function was inhibited."}, "[2]": {"tested_on": "full-length APP, BACE1 and APP CTFs", "assay": "Western blot of full-length APP, BACE1 and APP CTFs in N2a cells transfected with human APP751", "assay_type": "cell-based, mouse", "settings": "1 μM DAPT", "description": "For the Western Blot analysis, the cells were lysed in 1% Triton X-100 and electrophoresed in 10-20% SDS-polyacrylamide Tris-Glycine gels. The immunoblotting was performed using the APP C8 antibody (Selkoe, D. J. et al., Proc. Natl. Acad. Sci. USA 85, 7341-7345, 1988), mouse actin (Sigma-Aldrich) or rabbit BACE1 (Calbiochem), followed by detection with ECL reagent (Perkin Elmer, Boston, Mass.). Bands on films were quantitated (Odyssey software, LI-COR, Nebraska) and the values normalized to actin expression.\nWe further examined whether NSAIDs lead to a decrease in γ-secretase activity. Inhibition of γ-secretase activity leads to accumulation of C99 and C83 (APP CTFs) and decreased release of AICD. Mouse N2a neuroblastoma cells were transfected with human APP751, and were treated with different NSAIDs and a Western blot was performed for full-length APP and APP CTFs (FIG. 16A). […] Next we asked whether NSAIDs alter generation of AICD and examined the effects of NSAIDs on the ability of APP-Gal4 to be cleaved by γ-secretase, releasing the Gal4-AICD fragment which activates a Gal4-dependent, artificially expressed, luciferase plasmid (Cao, X. et al., Science 293: 115-120, 2001). […]"}},
  "data": [
    {"smiles": "C[C@H](NC(=O)Cc1cc(F)cc(F)c1)C(=O)N[C@H](C(=O)OC(C)(C)C)c1ccccc1", "note": "[DAPT]", "values": [
      {"measurement": "FITC Lifetime (psec) mean ± SD", "setting": "[1]", "result": "2416 ± 118 (n = 9) psec"},
      {"measurement": "association of APP with PS1 (photobleach FRET, FIG. 10)", "setting": "APP and PS1; DAPT-treated cells", "result": "does not prevent close association of APP with PS1"},
      {"measurement": "FRET: percent increase in FITC fluorescence intensity after photobleaching Cy3", "setting": "APP and PS1; wt PS1/APP770 cells, DAPT treatment, untreated 11.6±3%", "result": "19.8±2", "unit": "%"},
      {"measurement": "Aβ secretion", "setting": "Aβ secretion", "result": "significant decrease"},
      {"measurement": "APP CTFs (Western blot)", "setting": "[2]", "result": "accumulation of APP CTFs"}
    ]}
  ]
}
